Reference: publication PMC10913048, “Snapshots of the Reaction Coordinate of a Thermophilic 2′-Deoxyribonucleoside/ribonucleoside Transferase” (ACS Catalysis, 2024)

Assays:
[1] = target: T1, CtNDT (2′-deoxyribonucleoside/ribonucleoside transferase, dNDT) (Chroococcidiopsis thermalis, UniProt K9TVX3); assay: crystal structure of the covalent 2-difluoro-2-deoxyribosyl enzyme after cocrystallization; assay type: binding
T1 construct: gene Chro_1188
T1 sequence (K9TVX3 1-155): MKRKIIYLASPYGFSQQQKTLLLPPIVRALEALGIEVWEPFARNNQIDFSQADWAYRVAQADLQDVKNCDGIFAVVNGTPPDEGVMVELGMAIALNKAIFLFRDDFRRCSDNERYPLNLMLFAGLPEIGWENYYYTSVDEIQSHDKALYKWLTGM

[2] = target: T1, CtNDT (2′-deoxyribonucleoside/ribonucleoside transferase, dNDT); assay: HPLC steady-state transglycosylation kinetics (kcat); assay type: biochemical
[3] = target: T2, CtNDT (2′-deoxyribonucleoside/ribonucleoside transferase, dNDT) (Chroococcidiopsis thermalis, UniProt K9TVX3, E88A); assay: stopped-flow tryptophan fluorescence; kon […] ^–[…] s^–[…], koff […] s^–[…]; assay type: binding; conditions: read-out: stopped-flow tryptophan fluorescence; kon 0.76 μM^-1 s^-1, koff 39.3 s^-1
T2 construct: gene Chro_1188

[4] = target: T1, CtNDT (2′-deoxyribonucleoside/ribonucleoside transferase, dNDT); assay: stopped-flow fluorescence ([…]′-deoxyribosylation […] s^–[…]); HPLC steady-state kinetics (kcat/KM); assay type: binding
[5] = target: T1, CtNDT (2′-deoxyribonucleoside/ribonucleoside transferase, dNDT); assay: ITC; stopped-flow fluorescence; assay type: binding
[6] = target: T3, CtNDT (2′-deoxyribonucleoside/ribonucleoside transferase, dNDT) (Chroococcidiopsis thermalis, UniProt K9TVX3, D62N); assay: co-crystal structure; assay type: binding
T3 construct: gene Chro_1188

[7] = target: Chroococcidiopsis thermalis nucleoside 2'-deoxyribosyltransferase (CtNDT), wild type (Chroococcidiopsis thermalis PCC 7203) (UniProt K9TVX3); assay: SEC; size exclusion of purified CtNDT in solution (Figure S1); conditions not shown
[8] = target: T1, CtNDT (2′-deoxyribonucleoside/ribonucleoside transferase, dNDT); assay: ITC; co-crystal structure; assay type: binding
[9] = substrate: Nc1ncnc2c1ncn2[C@@H]1O[C@H](CO)[C@@H](O)[C@H]1O; assay: crystal structure of ribosylated enzyme after cocrystallization; HPLC steady-state kinetics (KM); assay type: biochemical, Chroococcidiopsis thermalis; conditions: ribosyl covalent on catalytic glutamate E88; D62 near […]′-OH and […]′-OH
Text: crystal structure of ribosylated enzyme after cocrystallization; HPLC steady-state kinetics (KM) on CtNDT (2′-deoxyribonucleoside/ribonucleoside transferase, dNDT) | determined the structure of a ribosylated enzyme intermediate by cocrystallization of wild-type CtNDT in the presence of Ado

## Nc1ccn([C@@H]2O[C@H](CO)[C@@H](O)C2(F)F)c(=O)n1 [Gemcitabine]
[1]
  crystal structure of the covalent 2-difluoro-2-deoxyribosyl enzyme after cocryst: structure of a 2-difluoro-2-deoxy-ribosylated CtNDT after cocrystallization with Gemcitabine

## Nc1nc2c(ncn2[C@H]2C[C@H](O)[C@@H](CO)O2)c(=O)[nH]1 [2′-deoxyguanosine]
[2]
  HPLC steady-state transglycosylation kinetics (kcat): 6.9 ± 0.7 s^–1

## Nc1ncnc2c1ncn2[C@H]1C[C@H](O)[C@@H](CO)O1 [2′-deoxyadenosine]
[3]
  koff: 39.3 ± 0.7 s⁻¹
[4]
  stopped-flow fluorescence (2′-deoxyribosylation 532 s^-1); HPLC steady-state kin: 50.5 ± 12.2 mM^–1 s^–1

## O=c1[nH]cnc2c([C@@H]3N[C@H](CO)[C@@H](O)[C@H]3O)c[nH]c12 [immucillin-H]
[5]
  Kd: 78.2 ± 6.6 µM
[6]
  co-crystal structure: (b) CtNDTD62N bound to immucillin-H

## Chroococcidiopsis thermalis nucleoside 2'-deoxyribosyltransferase (CtNDT), wild type (from UniProt K9TVX3 1-155) (enzyme)
[7]
  stoichiometry N: 4

## O=c1[nH]cnc2c(CN3C[C@H](CO)[C@@H](O)C3)c[nH]c12 [DADme–immucillin-H]
[8]
  Kd: 0.009 ± 0.005 µM

B1: CtNDT (2′-deoxyribonucleoside/ribonucleoside transferase, dNDT) (Chroococcidiopsis thermalis PCC 7203) (protein)
chain: T1 sequence (K9TVX3 1-155)
[9]
  Km: 250 ± 50 µM
